Source: patent publication US10888567B2, “Inhibitors of tryptophan dioxygenases (IDO1 and TDO) and their use in therapy” (AUCKLAND UNISERVICES LIMITED, priority 2014, dated 2021)

How the values were obtained:
[1] = biological target: Recombinant human IDO1 (rhIDO1) (Homo sapiens (Human), UniProt P14902); test: Enzymatic assay for IDO1 activity; format: biochemical; details: rhIDO1 9 nM, 80 μM TRP, 37° C. 30 min
Procedure: Recombinant human IDO1 (rhIDO1) was expressed and purified from cultures of EC538 strain of E. coli transformed with pREP4 and pQE9-IDO plasmid. Reaction mixes were set up in 384-well microplates containing 50 mM phosphate buffer, 10 mM ascorbic, 10 μM methylene blue, 100 μg/mL catalase, 80 μM TRP, 0.01% Tween 20 (v/v) mixed with rhIDO1 (15 μL) at a final concentration of 9 nM in a total volume of 30 μL assay medium. The plates were incubated at 37° C. for 30 min, and the enzymatic reaction was terminated by adding piperidine (200 mM) and heated at 65° C. for 20 min. Fluorescence intensity was read at λex 400 nm and λem 500 nm. Test compounds were dissolved in 100% DMSO and pre-diluted in assay medium prior to adding rhIDO1. IDO1 inhibition (%) was calculated as
[formula] All experiments were carried out in triplicates, and statistical Analyses were conducted in Prism v5 (Graphpad Software, Inc., La Jolla, Calif., USA). Cell-Based Assay for IDO1 Inhibition

[2] = biological target: human IDO1 (LLTC-hIDO1 cells) (Homo sapiens, UniProt P14902); test: Cell-based assay for IDO1 inhibition (kynurenine in supernatant); details: IDO1-transfected Lewis Lung carcinoma cells, 24 h; read-out: Cellular IC50
Procedure: Culture supernatant from each well was then transferred into a fresh, flat-bottomed 96-well plate, mixed with trichloroacetic acid (10% final concentration) and incubated for 20 min at 60° C. […] The absorbance of each well was read at 480 nm, and the concentration that inhibited 50% cellular enzyme activity was calculated.

[3] = test system: Lewis Lung carcinoma cells transfected to express IDO1 (LLTC-hIDO1); test: MTT cell viability in the cellular IDO1 assay; format: cell-based; details: same experiment as cellular IDO1 assay
Procedure: The viability of the cells in each well in the same experiment was determined using the 3-(4,5-dimethylthiazolyl-2-yl)-2,5-diphenyltetrazolium bromide (MTT) colourimetric assay. After the removal of the supernatant for determination of IDO1 inhibition, the cells were incubated with MTT (500 μg/mL) until crystal formation was observed. […] DMSO (100 μL/well) was added to dissolve the crystals and then the absorbance in each well was measured at 570 nm. Cell viability in each well was expressed as a percentage of untreated controls. Triplicate cultures were used for all experiments unless stated otherwise.

Chain of Recombinant human IDO1 (rhIDO1) (P14902 whole entry): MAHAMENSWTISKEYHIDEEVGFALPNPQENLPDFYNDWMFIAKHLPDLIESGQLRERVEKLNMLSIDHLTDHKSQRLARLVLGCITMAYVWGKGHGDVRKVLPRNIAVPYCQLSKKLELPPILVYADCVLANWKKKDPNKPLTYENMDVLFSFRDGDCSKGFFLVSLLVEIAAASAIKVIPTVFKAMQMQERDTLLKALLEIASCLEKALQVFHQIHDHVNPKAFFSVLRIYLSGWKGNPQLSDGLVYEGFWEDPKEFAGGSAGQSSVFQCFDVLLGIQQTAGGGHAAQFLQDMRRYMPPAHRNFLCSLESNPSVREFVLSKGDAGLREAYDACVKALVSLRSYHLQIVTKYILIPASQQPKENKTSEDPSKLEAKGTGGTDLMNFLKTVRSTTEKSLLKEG

| IC50 [1] [µM] | IC50 [2] [µM] | IC50 [3] [µM] | Structure (SMILES) |
| --- | --- | --- | --- |
| 1 to 10 | < 1 | > 100 | Cc1nc2onc(N)c2c(C)c1Br [Compound 1, 5-Bromo-4,6-dimethylisoxazolo[5,4-b]pyridin-3-amine] |
| > 100 | > 100 | > 100 | Nc1noc2nc(NC3CC3)c(F)cc12 [Compound 56, N6-Cyclopropyl-5-fluoroisoxazolo[5,4-b]pyridine-3,6-diamine] |
| > 100 | 10 to 100 | > 100 | Cc1cc2c(N)noc2nc1C [Compound 45, 5,6-Dimethylisoxazolo[5,4-b]pyridin-3-amine] |
| 10 to 100 | 1 to 10 | > 100 | Nc1noc2nc3ccccc3cc12 [Compound 9, Isoxazolo[5,4-b]quinolin-3-amine] |
| > 100 | 10 to 100 | > 100 | CS(=O)(=O)c1ccc2c(N)noc2n1 [Compound 80, 6-(methylsulfonyl)isoxazolo[5,4-b]pyridin-3-amine] |
| > 100 | 10 to 100 | > 100 | CC(C)c1ccc2c(N)noc2n1 [Compound 48, 6-Isopropylisoxazolo[5,4-b]pyridin-3-amine] |
| > 100 | 1 to 10 | > 100 | Nc1noc2ncncc12 [Compound 12, Isoxazolo[5,4-d]pyrimidin-3-amine] |
| > 100 | 10 to 100 | > 100 | Cc1nc2onc(N)c2c(C)c1OC(F)F [Compound 52, 5-(Difluoromethoxy)-4,6-dimethylisoxazolo[5,4-b]pyridin-3-amine] |
| 10 to 100 | 10 to 100 | > 100 | Nc1noc2nc(Oc3ccccc3Cl)ccc12 [Compound 84, 6-(2-Chlorophenoxy)isoxazolo[5,4-b]pyridin-3-amine] |
| > 100 | > 100 | > 100 | CN(C)CCOc1ccc2c(N)noc2n1 [Compound 77, 6-(2-(Dimethylamino)ethoxy)isoxazolo[5,4-b]pyridin-3-amine] |
| > 100 | > 100 | > 100 | CSc1nc(-c2ccccc2)nc2onc(N)c12 [Compound 65, 4-(Methylthio)-6-phenylisoxazolo[5,4-d]pyrimidin-3-amine] |
| 1 to 10 | < 1 | > 100 | Nc1noc2ncc([N+](=O)[O-])cc12 [Compound 49, 5-Nitroisoxazolo[5,4-b]pyridin-3-amine] |
| > 100 | 1 to 10 | > 100 | Nc1noc2nc(-c3ccccc3)ccc12 [Compound 15, 6-Phenylisoxazolo[5,4-b]pyridin-3-amine] |
| > 100 | 10 to 100 | > 100 | COC(=O)c1ccc2c(N)noc2n1 [Compound 82, Methyl 3-aminoisoxazolo[5,4-b]pyridine-6-carboxylate] |
| 10 to 100 | 10 to 100 | > 100 | CCOC(=O)c1cc2c(N)noc2nc1C(F)(F)F [Compound 50, Ethyl 3-amino-6-(trifluoromethyl)isoxazolo[5,4-b]pyridine-5-carboxylate] |
| > 100 | > 100 | > 100 | Nc1noc2nc(-c3ccc(Cl)cc3Cl)ccc12 [Compound 72, 6-(2,4-Dichlorophenyl)isoxazolo[5,4-b]pyridin-3-amine] |
| > 100 | 10 to 100 | > 100 | Nc1noc2nc(Cl)cc(C(F)(F)F)c12 [Compound 68, 6-Chloro-4-(trifluoromethyl)isoxazolo[5,4-b]pyridin-3-amine] |

| Structure (SMILES) | IC50 [1] [µM] | IC50 [2] [µM] | IC50 [3] [µM] |
| --- | --- | --- | --- |
| COCC#Cc1cnc2onc(N)c2c1 [Compound 69, 5-(3-Methoxyprop-1-yn-1-yl)isoxazolo[5,4-b]pyridin-3-amine] | > 100 | 10 to 100 | > 100 |
| Nc1noc2nc(-c3ccc(F)cc3)ccc12 [Compound 71, 6-(4-Fluorophenyl)isoxazolo[5,4-b]pyridin-3-amine] | > 100 | 10 to 100 | > 100 |
